# Assay results published in article PMC9668969 (Nature Communications, 2022).
# Where “and” joins values, the source holds several entries; their conditions need not be identical. Identical values can stand only once.
# Experiments:
# ELIC = settings: cited from earlier work
# WT ELIC = assay: Asymmetric liposome stopped-flow Tl+ flux assay (no exchange vs exchange, 25 mol% outer leaflet POPG); format: biochemical, Erwinia chrysanthemi; design: key to Tl+ flux quenching rate, Avg. / Tl+ flux quenching rate: Tl+ influx rate kt at 2 ms from stretched-exponential fit (Eq. 2b); settings: for Tl+ flux quenching rate, Avg. / Tl+ flux quenching rate: No-exchange: WT in 3:1 PC:PE with just beta-CD, 10 mM propylamine; for Tl+ flux quenching rate: single experiments
# Protocol: The fluorescence sequential-mixing stopped-flow liposomal flux measurements were carried using an SX20 stopped-flow spectrofluorometer (Applied Photophysics) and Pro-Data SX software[13],[30]. 7.5 mg of the respective lipid mixture (POPC, 1:1 POPC: POPE, 1:1 POPC:POPG, 3:1 POPC:POPE, 3:1 POPC:POPG, 2:1:1 POPC:POPE:POPG) was dried in a glass vial to a thin film under a constant stream of N2. The lipids were then further dried under vacuum in a desiccator overnight. The following day the lipids were hydrated in 500 µl of reconstitution buffer (100 mM NaNO3, 10 mM HEPES, pH 7) (Buffer R), 250 µl of 75 mM 8-Aminonaphthalene-1,3,6-Trisulfonic Acid (ANTS, ThermoFisher Scientific) in buffer R, and doped with ~18 mg of CHAPS (Anatrace). The mixture was vortexed and then sonicated with heat until completely solubilized. Following the sonication, the solution was brought to RT then 3.5 µl of 6.7 mg/ml ELIC in Buffer A with 0.02% DDM was added (3 µg per mg of lipid). This combined solution was incubated at RT for 30 min, followed by the addition of 1 ml of 1:1 v/v SM-2 BioBeads in Buffer R and an additional 250 µl of 75 mM ANTS in Buffer R. This mixture was incubated at RT for 2.5 hr with gentle mixing. The liposome suspension was then extruded with an Avanti mini-extruder and 0.1 µm membrane (30×). The extruded liposomes were stored at 13 °C overnight with gentle rotation. The next day, the liposomes were diluted to 2.5 mL using assay buffer (140 mM NaNO3, 10 mM HEPES, pH 7) (Stopped-flow Buffer A), loaded into a PD-10 desalting column (Cytiva), eluted with 3 mL of Stopped-flow Buffer A and subsequently diluted 5-fold with Stopped-flow Buffer A.
# Using propylamine as the agonist, the assay and analysis was carried out as previously described[13],[30]. ELIC-containing liposomes were first mixed 1:1 with Buffer A containing 2× the concentration of propylamine. After a variable delay of 10 ms to 25 s, the sample was then mixed 1:1 with a quenching buffer (90 mM NaNO3, 50 mM TlNO3, 10 mM HEPES, pH 7), and ANTS fluorescence (ex. 360 nm, fluorescence above 420 nm) was recorded for 1 s. For each delay time, 5 repeat measurements were obtained. The data were collected using Applied Photophysics Pro-Data SX software. The fluorescence quenching traces were fit to a stretched exponential (Eq. 2a) and the rate of Tl^+ influx was determined at 2 ms (Eq. 2b).2a Ft=F∞+F0−F∞⋅e^−t/τ^β 2b kt=β/τ⋅2ms/τ^(β−1) where Ft, F∞, F0 are the fluorescence at time t, final fluorescence and initial fluorescence. τ is the time constant, β the stretched exponential factor, and kt the calculated rate of Tl^+ influx at 2 ms. The time course of desensitization was also fit to a double exponential and a weighted time constant was calculated as was done for the patch-clamp data using Origin 2019b. All replicates were taken from independent samples.
# Acceptor liposomes were prepared as described in the Stopped-flow fluorescence recordings section until completion of the extrusion step. The preparation was scaled up 2x to produce samples for the no-exchange and exchange conditions. After extrusion and storage of the liposomes overnight at 13 °C, the double liposome preparation was split into two equal volume aliquots of ~1.5 ml. Using the excel spreadsheet provided by Markones et al.[44], donor POPG and methyl-β-cyclodextrin (MβCD, Sigma) concentrations and volumes were calculated to produce an outer leaflet POPG content of 25 mol% in the liposomes. The calculations assumed a ~6.66 mM lipid concentration and 1.5 mL volume of the acceptor liposome solution[44]. A MβCD-POPG (50% saturation of MβCD by POPG) solution was formed by combining 224 µL 7.5 mM POPG in Stopped-flow Buffer A, 650 µl 300 mM MβCD in Stopped-flow Buffer A, and 126 µL Stopped-flow Buffer A, which was then mixed at 50 °C and 1000 RPM for 20 min using an Eppendorf thermomixer. […]
compound,measurement,setting,value
cardiolipin,effect on ELIC,ELIC,positively modulates ELIC
methyl-β-cyclodextrin,"Tl+ flux quenching rate, Avg.",WT ELIC; delay 0.01 s,12.9647
same,"Tl+ flux quenching rate, Avg.",WT ELIC; delay 0.025 s,13.7625
same,"Tl+ flux quenching rate, Avg.",WT ELIC; delay 0.05 s,18.86
same,"Tl+ flux quenching rate, Avg.",WT ELIC; delay 0.1 s,31.5581
same,"Tl+ flux quenching rate, Avg.",WT ELIC; delay 0.25 s,29.5756
same,"Tl+ flux quenching rate, Avg.",WT ELIC; delay 0.5 s,31.8845
same,"Tl+ flux quenching rate, Avg.",WT ELIC; delay 1 s,34.9406
same,"Tl+ flux quenching rate, Avg.",WT ELIC; delay 2.5 s,21.2322
same,"Tl+ flux quenching rate, Avg.",WT ELIC; delay 5 s,10.788
same,"Tl+ flux quenching rate, Avg.",WT ELIC; delay 10 s,2.374
same,"Tl+ flux quenching rate, Avg.",WT ELIC; delay 25 s,1.305
same,effect on ELIC responses,"WT ELIC; methyl-β-cyclodextrin alone, 3:1 POPC:POPE liposomes",did not alter ELIC responses
same,Tl+ flux quenching rate,WT ELIC; delay 0.025 s,9.097 and 18.0228 and 11.9906 and 15.9401
same,Tl+ flux quenching rate,WT ELIC; delay 0.25 s,35.4461 and 38.8846 and 20.2406 and 23.7309
same,Tl+ flux quenching rate,WT ELIC; delay 2.5 s,25.1548 and 26.3221 and 15.7795 and 17.6721
same,Tl+ flux quenching rate,WT ELIC; delay 5 s,10.4577 and 9.241 and 15.1687 and 8.284
"CC/C=C\C/C=C\C/C=C\C/C=C\C/C=C\C/C=C\CCC(=O)O [DHA, docosahexaenoic acid]",effect on ELIC agonist response,ELIC,decreases peak agonist response and increases desensitization
